Measurements published in ChEMBL document CHEMBL4043168, “The design and SAR of a novel series of 2-aminopyridine based LRRK2 inhibitors” (Bioorg Med Chem Lett, 2017).

Columns and labels:
[1] = target: T1, Serine/threonine-protein kinase 3 (Homo sapiens) (UniProt Q13188); assay: Inhibition of MST2 conserved Lys1 (ESGQVVAIKQVPVESDLQEIIK) in human PBMC at 1 uM
T1 sequence (whole entry): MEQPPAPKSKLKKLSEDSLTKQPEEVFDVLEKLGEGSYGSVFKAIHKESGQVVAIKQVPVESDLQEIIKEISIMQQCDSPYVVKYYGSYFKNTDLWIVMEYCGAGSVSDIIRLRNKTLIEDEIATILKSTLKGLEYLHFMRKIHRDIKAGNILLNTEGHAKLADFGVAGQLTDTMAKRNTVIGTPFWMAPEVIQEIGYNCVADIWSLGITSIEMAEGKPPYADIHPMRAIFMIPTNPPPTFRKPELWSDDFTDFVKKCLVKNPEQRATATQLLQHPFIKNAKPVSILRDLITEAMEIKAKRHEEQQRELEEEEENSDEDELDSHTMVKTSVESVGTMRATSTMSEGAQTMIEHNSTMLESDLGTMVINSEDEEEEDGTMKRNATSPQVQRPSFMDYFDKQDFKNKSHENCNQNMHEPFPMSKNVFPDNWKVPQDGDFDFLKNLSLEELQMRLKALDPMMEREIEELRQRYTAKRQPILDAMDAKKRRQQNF

[2] = target: Serine/threonine-protein kinase/endoribonuclease IRE1 (Homo sapiens) (UniProt O75460); assay: Inhibition of IRE1 conserved Lys2 (DLKPHNILISMPNAHGK) in human PBMC at 1 uM
Serine/threonine-protein kinase/endoribonuclease IRE1 (Homo sapiens), sequence (O75460 19-977 limits assumed): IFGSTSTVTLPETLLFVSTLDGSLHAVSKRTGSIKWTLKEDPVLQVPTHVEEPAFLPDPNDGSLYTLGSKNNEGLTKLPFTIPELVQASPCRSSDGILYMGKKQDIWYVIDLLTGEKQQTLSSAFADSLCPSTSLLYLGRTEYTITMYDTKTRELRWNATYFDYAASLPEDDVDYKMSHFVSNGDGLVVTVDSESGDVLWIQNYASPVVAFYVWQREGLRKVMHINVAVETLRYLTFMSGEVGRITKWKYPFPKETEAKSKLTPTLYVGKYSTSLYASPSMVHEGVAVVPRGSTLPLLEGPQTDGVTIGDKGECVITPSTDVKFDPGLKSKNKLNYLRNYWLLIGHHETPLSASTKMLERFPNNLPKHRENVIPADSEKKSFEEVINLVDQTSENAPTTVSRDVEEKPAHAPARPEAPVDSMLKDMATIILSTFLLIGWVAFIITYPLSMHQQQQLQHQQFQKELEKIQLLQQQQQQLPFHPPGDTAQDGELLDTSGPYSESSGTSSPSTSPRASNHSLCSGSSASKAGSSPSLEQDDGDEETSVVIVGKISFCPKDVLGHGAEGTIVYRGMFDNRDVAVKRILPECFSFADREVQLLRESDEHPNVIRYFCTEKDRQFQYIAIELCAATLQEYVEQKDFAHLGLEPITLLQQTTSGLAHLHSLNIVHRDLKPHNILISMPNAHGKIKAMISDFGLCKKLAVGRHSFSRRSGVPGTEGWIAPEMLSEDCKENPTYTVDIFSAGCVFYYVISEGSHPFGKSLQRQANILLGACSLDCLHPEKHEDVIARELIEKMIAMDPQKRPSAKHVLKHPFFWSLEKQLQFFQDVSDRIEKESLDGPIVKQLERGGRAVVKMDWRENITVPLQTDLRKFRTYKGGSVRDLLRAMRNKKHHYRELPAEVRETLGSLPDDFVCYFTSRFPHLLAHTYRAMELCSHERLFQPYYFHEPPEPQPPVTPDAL

[3] = target: Mitogen-activated protein kinase kinase kinase 3 (Homo sapiens) (UniProt Q99759); assay: Inhibition of MAP3K3 conserved Lys2 (DIKGANILR) in human PBMC at 0.1 uM
Mitogen-activated protein kinase kinase kinase 3 (Homo sapiens), sequence (Q99759 whole entry): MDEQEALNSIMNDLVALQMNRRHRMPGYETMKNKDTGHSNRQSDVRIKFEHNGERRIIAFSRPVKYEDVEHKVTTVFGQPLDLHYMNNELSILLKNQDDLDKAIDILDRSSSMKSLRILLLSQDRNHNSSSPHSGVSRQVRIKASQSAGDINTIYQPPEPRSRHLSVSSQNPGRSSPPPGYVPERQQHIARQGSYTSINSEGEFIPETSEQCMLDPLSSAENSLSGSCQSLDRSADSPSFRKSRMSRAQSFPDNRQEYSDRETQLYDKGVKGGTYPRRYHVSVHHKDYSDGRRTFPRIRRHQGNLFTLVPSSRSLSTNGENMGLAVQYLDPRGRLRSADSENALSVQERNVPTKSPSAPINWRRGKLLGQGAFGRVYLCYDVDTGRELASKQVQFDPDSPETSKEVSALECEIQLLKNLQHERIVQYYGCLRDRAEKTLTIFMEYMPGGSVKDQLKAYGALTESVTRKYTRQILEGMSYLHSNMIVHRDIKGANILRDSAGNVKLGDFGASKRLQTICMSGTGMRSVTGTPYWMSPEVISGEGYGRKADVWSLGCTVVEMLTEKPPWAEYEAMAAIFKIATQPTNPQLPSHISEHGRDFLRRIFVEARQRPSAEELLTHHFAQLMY

[4] = target: T2, Serine/threonine-protein kinase LATS1 (Homo sapiens) (UniProt O95835); assay: Inhibition of LATS1 conserved Lys2 (DIKPDNILIDR) in human PBMC at 0.1 uM
T2 sequence (whole entry): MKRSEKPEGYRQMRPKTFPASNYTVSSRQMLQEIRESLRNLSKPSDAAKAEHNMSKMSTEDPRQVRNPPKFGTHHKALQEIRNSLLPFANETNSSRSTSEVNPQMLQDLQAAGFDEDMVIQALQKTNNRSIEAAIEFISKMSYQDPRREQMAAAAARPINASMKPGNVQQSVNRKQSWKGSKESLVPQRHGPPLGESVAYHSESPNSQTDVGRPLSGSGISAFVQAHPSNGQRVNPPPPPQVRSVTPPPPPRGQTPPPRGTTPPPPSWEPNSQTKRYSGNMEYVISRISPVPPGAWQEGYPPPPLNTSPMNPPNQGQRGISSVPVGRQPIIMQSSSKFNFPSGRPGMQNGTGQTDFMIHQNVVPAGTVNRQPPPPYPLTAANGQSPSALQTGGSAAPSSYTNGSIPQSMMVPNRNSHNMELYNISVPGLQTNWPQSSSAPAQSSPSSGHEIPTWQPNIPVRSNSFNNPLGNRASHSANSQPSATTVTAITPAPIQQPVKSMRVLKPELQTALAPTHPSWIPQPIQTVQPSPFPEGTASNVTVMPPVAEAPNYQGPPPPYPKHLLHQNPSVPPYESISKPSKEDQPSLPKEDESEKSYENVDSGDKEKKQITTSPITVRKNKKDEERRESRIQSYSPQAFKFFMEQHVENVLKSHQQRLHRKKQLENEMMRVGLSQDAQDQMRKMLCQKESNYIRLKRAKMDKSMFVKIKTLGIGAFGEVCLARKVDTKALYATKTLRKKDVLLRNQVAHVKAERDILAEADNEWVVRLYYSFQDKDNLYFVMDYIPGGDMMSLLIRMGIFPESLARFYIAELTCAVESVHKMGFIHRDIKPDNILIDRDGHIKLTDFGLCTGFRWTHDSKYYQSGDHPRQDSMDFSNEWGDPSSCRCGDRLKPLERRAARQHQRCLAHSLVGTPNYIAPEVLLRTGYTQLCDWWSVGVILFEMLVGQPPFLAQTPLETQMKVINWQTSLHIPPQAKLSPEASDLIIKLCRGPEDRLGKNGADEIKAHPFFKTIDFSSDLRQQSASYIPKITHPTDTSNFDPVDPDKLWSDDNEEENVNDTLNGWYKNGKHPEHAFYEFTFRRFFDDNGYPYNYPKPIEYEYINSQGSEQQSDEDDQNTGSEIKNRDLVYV

[5] = target: T3, Serine/threonine-protein kinase ULK3 (Homo sapiens) (UniProt Q6PHR2); assay: Inhibition of ULK3 conserved Lys2 (NISHLDLKPQNILLSSLEKPHLK) in human PBMC at 1 uM
T3 sequence (whole entry): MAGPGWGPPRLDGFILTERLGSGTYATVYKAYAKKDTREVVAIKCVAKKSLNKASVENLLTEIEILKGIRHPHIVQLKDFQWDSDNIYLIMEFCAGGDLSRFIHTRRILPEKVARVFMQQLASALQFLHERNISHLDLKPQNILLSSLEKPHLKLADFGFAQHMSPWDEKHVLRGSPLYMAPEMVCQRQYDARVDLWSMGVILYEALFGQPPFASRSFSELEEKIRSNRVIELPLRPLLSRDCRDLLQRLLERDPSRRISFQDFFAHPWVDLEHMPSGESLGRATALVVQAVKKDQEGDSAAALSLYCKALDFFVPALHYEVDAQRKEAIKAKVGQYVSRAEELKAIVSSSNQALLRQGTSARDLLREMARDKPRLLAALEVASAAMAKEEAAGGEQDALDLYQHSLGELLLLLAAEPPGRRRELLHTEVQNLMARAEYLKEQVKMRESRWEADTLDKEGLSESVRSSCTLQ

[6] = target: 5'-AMP-activated protein kinase catalytic subunit alpha-1 (Homo sapiens) (UniProt Q13131); assay: Inhibition of AMPKa1 labeling at conserved Lys1 (VAVKILNR) in human PBMC at 0.1 uM
5'-AMP-activated protein kinase catalytic subunit alpha-1 (Homo sapiens), sequence (Q13131 whole entry, looked up): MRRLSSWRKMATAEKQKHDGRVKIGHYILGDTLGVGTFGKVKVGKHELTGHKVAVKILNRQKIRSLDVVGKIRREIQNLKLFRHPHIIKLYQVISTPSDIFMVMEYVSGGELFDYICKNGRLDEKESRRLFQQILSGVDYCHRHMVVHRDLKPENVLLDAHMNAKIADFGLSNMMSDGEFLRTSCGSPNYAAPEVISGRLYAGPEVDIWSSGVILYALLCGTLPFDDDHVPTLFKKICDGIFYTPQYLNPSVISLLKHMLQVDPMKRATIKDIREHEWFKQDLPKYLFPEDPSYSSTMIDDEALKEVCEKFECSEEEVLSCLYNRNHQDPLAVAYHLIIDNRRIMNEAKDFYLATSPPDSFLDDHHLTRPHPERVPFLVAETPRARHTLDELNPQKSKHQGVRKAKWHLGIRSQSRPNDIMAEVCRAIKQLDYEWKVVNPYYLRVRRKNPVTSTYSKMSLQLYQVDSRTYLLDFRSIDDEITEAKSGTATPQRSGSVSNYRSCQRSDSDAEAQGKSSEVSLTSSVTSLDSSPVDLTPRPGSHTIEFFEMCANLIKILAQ

[7] = target: T1, Serine/threonine-protein kinase 3 (Homo sapiens); assay: Inhibition of MST2 conserved Lys2 (DIKAGNILLNTEGHAK) in human PBMC at 0.1 uM
[8] = target: PAN2-PAN3 deadenylation complex subunit PAN3 (Homo sapiens) (UniProt Q58A45); assay: Inhibition of PAN3 Protein Kinase Domain (VMDPTKILITGK) in human PBMC at 1 uM
[9] = target: Leucine-rich repeat serine/threonine-protein kinase 2 (Homo sapiens, UniProt Q5S007); assay: Inhibition of LRRK2 conserved Lys2 (DLKPHNVLLFTLYPNAAIIAK) in human PBMC at 1 uM
[10] = target: Mitogen-activated protein kinase 3 (Homo sapiens) (UniProt P27361); assay: Inhibition of Erk1 ATP binding site (DLKPSNLLINTTCDLK) in human PBMC at 1 uM
Mitogen-activated protein kinase 3 (Homo sapiens), sequence (P27361 whole entry): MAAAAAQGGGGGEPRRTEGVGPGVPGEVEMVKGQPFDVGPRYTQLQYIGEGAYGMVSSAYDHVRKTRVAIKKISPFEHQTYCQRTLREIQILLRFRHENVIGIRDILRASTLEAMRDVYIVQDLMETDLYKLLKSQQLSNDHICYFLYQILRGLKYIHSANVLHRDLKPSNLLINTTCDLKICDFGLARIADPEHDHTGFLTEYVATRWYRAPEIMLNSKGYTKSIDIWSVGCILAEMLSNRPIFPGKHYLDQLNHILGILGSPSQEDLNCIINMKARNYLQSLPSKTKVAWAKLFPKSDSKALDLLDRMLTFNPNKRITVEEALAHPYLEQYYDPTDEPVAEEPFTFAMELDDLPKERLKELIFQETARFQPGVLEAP

[11] = target: Activated CDC42 kinase 1 (Homo sapiens) (UniProt Q07912); assay: Inhibition of ACK labeling at ATP binding site (TVSVAVKCLKPDVLSQPEAMDDFIR) in human PBMC at 1 uM
[12] = target: Serine/threonine-protein kinase WNK1 (Homo sapiens) (UniProt Q9H4A3); assay: Inhibition of Wnk1 ATP binding site (GSFKTVYK) in human PBMC at 1 uM
Serine/threonine-protein kinase WNK1 (Homo sapiens), sequence (Q9H4A3 whole entry, looked up): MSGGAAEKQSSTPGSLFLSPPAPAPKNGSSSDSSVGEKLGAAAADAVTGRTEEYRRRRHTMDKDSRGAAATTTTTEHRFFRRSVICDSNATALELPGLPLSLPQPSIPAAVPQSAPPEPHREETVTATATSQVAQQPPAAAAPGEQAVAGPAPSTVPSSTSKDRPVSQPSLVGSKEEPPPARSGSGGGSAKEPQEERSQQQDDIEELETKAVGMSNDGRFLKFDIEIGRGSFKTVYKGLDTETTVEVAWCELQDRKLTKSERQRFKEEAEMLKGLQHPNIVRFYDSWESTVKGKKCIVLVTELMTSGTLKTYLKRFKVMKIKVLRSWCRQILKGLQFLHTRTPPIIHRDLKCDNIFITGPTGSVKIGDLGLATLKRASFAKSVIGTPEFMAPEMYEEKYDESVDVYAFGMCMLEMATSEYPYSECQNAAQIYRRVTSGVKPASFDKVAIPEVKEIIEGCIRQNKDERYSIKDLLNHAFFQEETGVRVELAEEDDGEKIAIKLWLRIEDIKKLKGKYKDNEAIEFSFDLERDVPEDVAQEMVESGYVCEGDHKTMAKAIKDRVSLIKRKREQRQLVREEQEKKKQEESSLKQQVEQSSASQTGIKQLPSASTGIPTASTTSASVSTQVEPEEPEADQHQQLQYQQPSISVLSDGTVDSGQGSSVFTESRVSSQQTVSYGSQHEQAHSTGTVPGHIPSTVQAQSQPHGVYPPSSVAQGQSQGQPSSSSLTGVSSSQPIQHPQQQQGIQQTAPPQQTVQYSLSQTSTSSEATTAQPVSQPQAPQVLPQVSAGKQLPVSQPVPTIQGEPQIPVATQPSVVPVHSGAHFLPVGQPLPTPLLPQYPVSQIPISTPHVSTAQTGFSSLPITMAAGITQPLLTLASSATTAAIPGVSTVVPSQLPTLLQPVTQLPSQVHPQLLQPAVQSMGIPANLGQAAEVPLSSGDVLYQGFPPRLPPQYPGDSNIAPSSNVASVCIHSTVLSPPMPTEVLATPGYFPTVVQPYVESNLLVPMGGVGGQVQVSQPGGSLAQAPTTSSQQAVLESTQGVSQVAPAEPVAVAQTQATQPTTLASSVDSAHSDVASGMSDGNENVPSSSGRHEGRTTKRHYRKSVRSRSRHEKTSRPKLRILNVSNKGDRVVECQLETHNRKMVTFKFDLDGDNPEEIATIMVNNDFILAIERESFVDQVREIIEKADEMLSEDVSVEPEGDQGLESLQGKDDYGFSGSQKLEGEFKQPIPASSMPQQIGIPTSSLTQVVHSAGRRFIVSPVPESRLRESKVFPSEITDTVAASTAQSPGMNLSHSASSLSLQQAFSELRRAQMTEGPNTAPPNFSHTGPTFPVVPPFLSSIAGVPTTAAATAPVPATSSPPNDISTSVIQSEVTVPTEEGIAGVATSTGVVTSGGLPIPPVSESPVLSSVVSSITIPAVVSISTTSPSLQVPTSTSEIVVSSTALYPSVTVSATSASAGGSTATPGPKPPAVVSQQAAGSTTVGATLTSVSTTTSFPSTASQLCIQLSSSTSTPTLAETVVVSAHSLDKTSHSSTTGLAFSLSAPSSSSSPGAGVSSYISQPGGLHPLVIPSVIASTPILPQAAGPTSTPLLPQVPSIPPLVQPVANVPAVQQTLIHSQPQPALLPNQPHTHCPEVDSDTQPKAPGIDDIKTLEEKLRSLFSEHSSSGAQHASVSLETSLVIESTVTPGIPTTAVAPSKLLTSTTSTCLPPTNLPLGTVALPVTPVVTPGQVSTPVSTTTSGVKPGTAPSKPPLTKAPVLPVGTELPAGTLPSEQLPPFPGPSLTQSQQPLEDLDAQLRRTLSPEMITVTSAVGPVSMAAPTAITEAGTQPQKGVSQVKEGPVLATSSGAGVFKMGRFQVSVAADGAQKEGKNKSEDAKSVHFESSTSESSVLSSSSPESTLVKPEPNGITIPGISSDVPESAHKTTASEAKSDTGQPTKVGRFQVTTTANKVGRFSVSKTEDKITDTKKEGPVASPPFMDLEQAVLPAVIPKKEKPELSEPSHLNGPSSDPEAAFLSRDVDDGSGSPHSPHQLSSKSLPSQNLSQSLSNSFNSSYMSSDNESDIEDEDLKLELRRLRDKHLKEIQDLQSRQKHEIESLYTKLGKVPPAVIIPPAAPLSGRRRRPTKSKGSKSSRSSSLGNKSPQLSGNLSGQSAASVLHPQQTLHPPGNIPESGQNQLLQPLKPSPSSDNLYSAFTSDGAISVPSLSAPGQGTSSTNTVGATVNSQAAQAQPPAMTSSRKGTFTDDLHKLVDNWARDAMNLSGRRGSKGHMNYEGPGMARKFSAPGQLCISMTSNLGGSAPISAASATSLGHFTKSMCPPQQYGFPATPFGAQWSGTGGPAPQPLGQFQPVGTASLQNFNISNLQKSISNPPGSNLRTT

Structure (SMILES): CC(C)n1cc(-c2cc(-c3ccc(CN4CCOCC4)cc3)cnc2N)nn1
- inhibition [1]: -6%
- inhibition [2]: 26.6%
- inhibition [3]: 23.2%
- inhibition [4]: 34.9%
- inhibition [5]: 40.8%
- inhibition [6]: 7.7%
- inhibition [7]: 1.3%
- inhibition [8]: 0.1%
- inhibition [9]: 48.5%
- inhibition [10]: 4.2%
- inhibition [11]: -5.7%
- inhibition [12]: 14.2%
